SMILES strings stand for the structures.

Five compounds from US20090181986A1, “SUBSTITUTED HETEROCYCLIC COMPOUNDS” (priority 2007, published 2009) can be followed below.

In data set [1] the target is T1, human cardiac L-type calcium channels (hCav1.2, coexpressed with the beta 2 subunit) (Homo sapiens, UniProt Q13936).
T1 construct: expressed in transfected cells
As to the kind of experiment: L-type calcium channel patch clamp screening assay (ICaL, HEK293). In kind it is cell-based. The settings on record: hCav1.2 in HEK293, percentage of current inhibited at steady state; for ICaL Patch Clamp Assay 1 μM % blk: 1 μM test compound; for ICaL Patch Clamp Assay 10 μM % blk: 10 μM test compound. The procedure: Compounds are screened to test for block of human cardiac L-type calcium channels (hCav1.2, encoded by the human CACNA1C gene and coexpressed with the beta 2 subunit, encoded by the human CACNB2 gene) expressed in an HEK293 cell line. Stable transfectants were selected using antibiotic resistance genes incorporated into the expression plasmids and selection pressure is maintained with selection antibiotics added to the culture medium. Cells are cultured using standard tissue culture methods for HEK293 cells.
Cells are harvested for addition to a PatchXpress automated patch clamp system. The external solution contains: 137 mM NaCl; 4 mM KCl; 1.8 mM CaCl2; 1 mM MgCl2; […]; 10 mM Glucose (pH adjusted to 7.4 with NaOH). The internal solution contains: 130 mM Cs Aspartate; 5 mM MgCl2; 5 mM EGTA; 4 mM ATP; 0.1 mM GTP; 10 mM HEPES (pH adjusted to 7.2 with N-methyl-D-glucamine).
Onset of block and steady state block of hCav1.2 channels are monitored using a stimulus voltage pattern consisting of a depolarizing test pulse (duration, 200 ms; amplitude, 10 mV) at 10s intervals from a −80 mV holding potential (FIG. 5). Test compound concentrations (1 μM and 10 μM) are applied cumulatively in ascending order without washout between applications. Peak current is measured during the step to 10 mV. A saturating concentration of nifedipine (10 μM) is added at the end of each experiment to completely block hCav1.2 current and verify sensitivity to channel blockade. Leakage current is measured after nifedipine addition and digitally subtracted from the total membrane current record. Each compound is applied to naive cells and each concentration is applied four times for a total exposure duration of five (5) minutes per concentration.
Test compound stock solutions are prepared in dimethyl sulfoxide (DMSO) and stored frozen. Test compound concentrations are prepared fresh daily by diluting stock solutions into the external HEPES-buffered physiological saline solution described above. […] Each test compound formulation is sonicated (Model 2510/5510, Branson Ultrasonics, Danbury, Conn.), at ambient room temperature for at least 20 minutes to facilitate dissolution. In preparation for the recording session, a glass-lined 96-well compound plate is loaded with the appropriate amounts of test and control solutions, and placed in the plate well of PatchXpress® (Model 7000A, MDS Analytical Technologies, Sunnyvale, Calif.).
Data acquisition and analyses are performed using conventional software. Steady state is defined by the limiting constant rate of change with time (linear time dependence). The steady state before and after test compound application is used to calculate the percentage of current inhibited at each concentration.
(In general: Patch clamp records ionic current or voltage across a cell membrane.)

Data set [2] has as its target hERG potassium channel (Homo sapiens, UniProt Q12809). The experiment in a line: hERG screening assay (PatchXpress patch clamp, CHO cells). Background: Block of hERG is tested as a sign of cardiac risk.

T1 sequence (Q13936 whole entry): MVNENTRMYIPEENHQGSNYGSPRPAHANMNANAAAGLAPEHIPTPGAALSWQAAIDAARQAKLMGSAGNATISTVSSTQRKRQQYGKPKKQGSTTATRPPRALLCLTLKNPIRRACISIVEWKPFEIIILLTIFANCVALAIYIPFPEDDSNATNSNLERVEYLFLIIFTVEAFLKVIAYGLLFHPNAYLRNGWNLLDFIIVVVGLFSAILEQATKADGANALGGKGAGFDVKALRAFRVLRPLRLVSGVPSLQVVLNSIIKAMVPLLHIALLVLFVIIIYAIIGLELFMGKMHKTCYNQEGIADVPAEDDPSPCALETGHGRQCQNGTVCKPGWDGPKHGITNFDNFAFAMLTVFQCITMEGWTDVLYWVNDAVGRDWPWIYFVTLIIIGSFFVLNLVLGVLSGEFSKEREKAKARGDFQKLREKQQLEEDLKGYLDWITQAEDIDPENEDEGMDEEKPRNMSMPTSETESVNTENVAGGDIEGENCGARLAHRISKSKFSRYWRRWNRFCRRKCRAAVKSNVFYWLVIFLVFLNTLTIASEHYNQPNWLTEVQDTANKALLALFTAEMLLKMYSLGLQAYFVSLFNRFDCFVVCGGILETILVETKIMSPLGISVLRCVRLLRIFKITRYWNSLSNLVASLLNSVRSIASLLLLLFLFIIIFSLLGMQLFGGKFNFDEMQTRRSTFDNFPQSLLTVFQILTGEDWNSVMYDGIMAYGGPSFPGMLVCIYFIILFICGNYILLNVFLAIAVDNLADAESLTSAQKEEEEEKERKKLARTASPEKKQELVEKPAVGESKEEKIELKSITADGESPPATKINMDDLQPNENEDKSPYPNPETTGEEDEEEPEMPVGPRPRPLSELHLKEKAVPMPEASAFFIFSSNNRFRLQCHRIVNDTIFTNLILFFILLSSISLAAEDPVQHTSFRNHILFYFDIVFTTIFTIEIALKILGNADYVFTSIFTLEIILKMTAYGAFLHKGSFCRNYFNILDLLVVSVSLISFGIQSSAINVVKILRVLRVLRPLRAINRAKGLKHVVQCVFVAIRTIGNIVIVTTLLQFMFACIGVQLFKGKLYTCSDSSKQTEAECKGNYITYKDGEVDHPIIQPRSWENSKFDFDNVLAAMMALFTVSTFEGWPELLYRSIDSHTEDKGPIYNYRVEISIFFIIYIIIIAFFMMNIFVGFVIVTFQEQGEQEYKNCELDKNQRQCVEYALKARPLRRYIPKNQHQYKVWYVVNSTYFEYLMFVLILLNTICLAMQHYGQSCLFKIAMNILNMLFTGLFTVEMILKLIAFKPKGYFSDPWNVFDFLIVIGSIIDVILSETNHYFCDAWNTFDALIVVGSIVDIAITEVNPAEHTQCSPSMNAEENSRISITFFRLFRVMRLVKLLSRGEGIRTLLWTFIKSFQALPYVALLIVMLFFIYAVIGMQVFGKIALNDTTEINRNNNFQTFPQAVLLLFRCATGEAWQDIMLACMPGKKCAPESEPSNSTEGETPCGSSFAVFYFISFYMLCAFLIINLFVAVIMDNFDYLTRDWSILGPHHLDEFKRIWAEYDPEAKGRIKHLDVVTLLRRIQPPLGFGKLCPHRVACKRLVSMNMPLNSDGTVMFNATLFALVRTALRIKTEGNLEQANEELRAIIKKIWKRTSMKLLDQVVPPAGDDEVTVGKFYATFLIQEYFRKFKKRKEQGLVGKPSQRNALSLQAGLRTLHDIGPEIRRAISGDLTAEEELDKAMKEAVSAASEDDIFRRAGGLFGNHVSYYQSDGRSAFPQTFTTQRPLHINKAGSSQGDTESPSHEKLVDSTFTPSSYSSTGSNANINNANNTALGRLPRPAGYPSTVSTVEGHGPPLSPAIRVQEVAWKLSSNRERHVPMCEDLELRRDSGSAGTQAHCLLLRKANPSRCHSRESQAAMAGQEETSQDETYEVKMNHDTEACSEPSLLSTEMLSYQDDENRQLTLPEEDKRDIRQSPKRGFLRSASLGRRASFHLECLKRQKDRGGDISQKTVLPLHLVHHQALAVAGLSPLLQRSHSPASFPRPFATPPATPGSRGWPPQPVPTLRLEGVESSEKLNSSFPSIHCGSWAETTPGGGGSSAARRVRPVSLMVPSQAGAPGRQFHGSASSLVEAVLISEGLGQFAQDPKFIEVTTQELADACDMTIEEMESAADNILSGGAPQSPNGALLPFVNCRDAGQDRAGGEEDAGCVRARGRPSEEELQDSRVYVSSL
T1 sequence (Q08289 whole entry partner): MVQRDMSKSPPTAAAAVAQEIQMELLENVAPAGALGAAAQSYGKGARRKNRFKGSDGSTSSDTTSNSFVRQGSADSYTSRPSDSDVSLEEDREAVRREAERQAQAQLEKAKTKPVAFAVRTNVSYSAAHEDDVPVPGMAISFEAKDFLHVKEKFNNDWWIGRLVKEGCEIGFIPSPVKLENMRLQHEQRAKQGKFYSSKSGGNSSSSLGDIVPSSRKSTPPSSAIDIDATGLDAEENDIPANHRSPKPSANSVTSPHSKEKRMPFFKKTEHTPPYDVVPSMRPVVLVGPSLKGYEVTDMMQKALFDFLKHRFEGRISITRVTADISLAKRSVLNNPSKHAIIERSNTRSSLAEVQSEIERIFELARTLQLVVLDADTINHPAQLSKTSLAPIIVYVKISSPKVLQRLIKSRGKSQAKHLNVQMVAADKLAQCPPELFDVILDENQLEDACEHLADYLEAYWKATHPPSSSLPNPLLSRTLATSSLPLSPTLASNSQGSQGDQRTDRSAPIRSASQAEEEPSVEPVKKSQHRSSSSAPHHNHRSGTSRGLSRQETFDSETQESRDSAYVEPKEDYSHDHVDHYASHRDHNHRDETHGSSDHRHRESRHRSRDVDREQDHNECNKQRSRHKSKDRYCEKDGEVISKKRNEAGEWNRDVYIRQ
Sequence of hERG potassium channel (Q12809 whole entry): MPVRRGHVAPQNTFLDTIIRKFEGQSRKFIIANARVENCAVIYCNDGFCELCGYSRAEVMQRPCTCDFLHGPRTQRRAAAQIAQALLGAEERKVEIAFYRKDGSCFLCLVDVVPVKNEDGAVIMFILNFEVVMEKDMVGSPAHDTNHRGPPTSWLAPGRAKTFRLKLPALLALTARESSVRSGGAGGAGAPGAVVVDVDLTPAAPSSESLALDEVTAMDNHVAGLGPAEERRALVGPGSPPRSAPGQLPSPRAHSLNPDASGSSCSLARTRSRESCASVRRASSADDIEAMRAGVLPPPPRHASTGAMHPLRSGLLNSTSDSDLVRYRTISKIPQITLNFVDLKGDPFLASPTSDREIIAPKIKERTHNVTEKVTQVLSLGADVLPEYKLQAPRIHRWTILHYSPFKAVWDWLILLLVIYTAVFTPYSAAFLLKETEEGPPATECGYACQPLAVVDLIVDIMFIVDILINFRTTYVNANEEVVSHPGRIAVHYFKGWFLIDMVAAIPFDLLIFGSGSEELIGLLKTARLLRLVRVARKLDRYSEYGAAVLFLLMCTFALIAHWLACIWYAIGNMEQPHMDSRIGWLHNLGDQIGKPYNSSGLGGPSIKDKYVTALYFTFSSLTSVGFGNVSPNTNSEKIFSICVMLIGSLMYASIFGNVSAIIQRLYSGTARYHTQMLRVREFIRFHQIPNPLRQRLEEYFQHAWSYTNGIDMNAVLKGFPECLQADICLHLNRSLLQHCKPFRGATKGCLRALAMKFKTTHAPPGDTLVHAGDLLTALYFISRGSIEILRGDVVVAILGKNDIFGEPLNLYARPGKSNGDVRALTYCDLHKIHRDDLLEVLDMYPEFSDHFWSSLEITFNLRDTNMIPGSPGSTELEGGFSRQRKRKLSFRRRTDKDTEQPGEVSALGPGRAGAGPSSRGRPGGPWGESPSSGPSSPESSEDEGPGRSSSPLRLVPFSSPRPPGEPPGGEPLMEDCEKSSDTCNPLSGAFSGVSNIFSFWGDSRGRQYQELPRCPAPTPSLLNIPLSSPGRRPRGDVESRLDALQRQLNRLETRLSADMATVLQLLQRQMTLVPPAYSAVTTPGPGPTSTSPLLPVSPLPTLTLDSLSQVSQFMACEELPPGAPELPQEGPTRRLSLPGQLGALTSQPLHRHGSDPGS

Take `CCOC(=O)C1=C(C)NC(C)=C(C(=O)OCC)C1c1ccc(OC)cc1C#N` [PT-431, diethyl 4-(2-cyano-4-methoxyphenyl)-2,6-dimethyl-1,4-dihydropyridine-3,5-dicarboxylate]: in data set [1], the “ICaL Patch Clamp Assay 1 μM % blk” value was found to be 3.7% and the “ICaL Patch Clamp Assay 10 μM % blk” value worked out at 2.4%.

For `CC1=C(C(=O)OCc2ccccc2)C(c2ccc(N(C)C)cc2[N+](=O)[O-])n2nnnc2N1` (centres unmarked) [PT-409, benzyl 7-(4-(dimethylamino)-2-nitrophenyl)-5-methyl-4,7-dihydrotetrazolo[1,5-a]pyrimidine-6-carboxylate], in data set [2], the “hERG Patch Clamp hERG % blk (1 μM test cmpd)” value is 27% and the “hERG Patch Clamp hERG % blk (10 μM test cmpd)” value turned out to be 78.5%. Besides, in data set [1], the “ICaL Patch Clamp Assay 1 μM % blk” value turned out to be 2.7% and the “ICaL Patch Clamp Assay 10 μM % blk” value amounted to 19.9%.

On to `CCOC(=O)C1=C(C)NC(C)=C(C(=O)OCC)C1c1ccccc1Br` [PT-430, diethyl 4-(2-bromophenyl)-2,6-dimethyl-1,4-dihydropyridine-3,5-dicarboxylate], for which, in data set [2], the “hERG Patch Clamp hERG % blk (1 μM test cmpd)” value stood at 10% and the “hERG Patch Clamp hERG % blk (10 μM test cmpd)” value was found to be 21.5%. Besides, in data set [1], the “ICaL Patch Clamp Assay 1 μM % blk” value is on record as 91.8% and the “ICaL Patch Clamp Assay 10 μM % blk” value is recorded as 98.6%.

Turning to `CCOC(=O)C1=C(C)NC(C)=C(C(=O)OCC)C1c1ccc(OC)cc1F` [PT-432, diethyl 4-(2-fluoro-4-methoxyphenyl)-2,6-dimethyl-1,4-dihydropyridine-3,5-dicarboxylate], in data set [1], the “ICaL Patch Clamp Assay 1 μM % blk” value was 3.7% and the “ICaL Patch Clamp Assay 10 μM % blk” value is listed as 35.3%.

For the compound `CCOC(=O)C1=C(C)NC(C)=C(C(=O)OCC)C1c1ccc(N(C)C)cc1[N+](=O)[O-]` [PT-437, diethyl 4-(4-(dimethylamino)-2-nitrophenyl)-2,6-dimethyl-1,4-dihydropyridine-3,5-dicarboxylate], in data set [1], the “ICaL Patch Clamp Assay 1 μM % blk” value was −0.1% and the “ICaL Patch Clamp Assay 10 μM % blk” value turned out to be 13.2%.
